Measurements published in patent publication US9113629B2, “4-amino-6-(4-substituted-phenyl)-picolinates and 6-amino-2-(4-substituted-phenyl)-pyrimidine-4-carboxylates and their use as herbicides” (DOW AGROSCIENCES LLC, priority 2013, dated 2015).
Read-outs that look alike come from different tables or passages of the source.

Columns and labels:
[1] = tested on: Key Grass and Sedge Weeds as well as Grass Crops; assay: Post-emergent Test II herbicidal activity (Table 6); assay type: in vivo; details: post-emergence, 336 h; for pest or weed control at 70 g/ha: application rate 70 g ai/ha; for pest or weed control at 140 g/ha: application rate 140 g ai/ha
Method in brief: (§1)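 Greenhouse post-emergent assay: seedlings (first/second true leaf) in Metro-Mix 360 were sprayed at 187 L/ha at a top rate plus twofold dilutions down to 1/16×; solvent-blank controls were included. Percent visual injury was read at 14 d.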

[2] = tested on: Key Broadleaf Weed and Crop Species; assay: Post-emergent Test II herbicidal activity (Table 5); assay type: in vivo; details: post-emergence, 336 h, post-emergent, 14 days after application; for pest or weed control at 70 g/ha: 70 g ai/ha; for pest or weed control at 140 g/ha: 140 g ai/ha
Method in brief: as §1

[3] = CYPES: yellow nutsedge (Cyperus esculentus), read-out: Visual Growth Reduction (%) 14 Days After Application, CYPES
[4] = DIGSA: crabgrass (Digitaria sanguinalis), read-out: Visual Growth Reduction (%) 14 Days After Application, DIGSA
[5] = ECHCG: barnyardgrass (Echinochloa crus-galli), read-out: Visual Growth Reduction (%) 14 Days After Application, ECHCG
[6] = ORYSA: rice (Oryza sativa), read-out: Visual Growth Reduction (%) 14 Days After Application, ORYSA
[7] = SETFA: giant foxtail (Setaria faberi), read-out: Visual Growth Reduction (%) 14 Days After Application, SETFA
[8] = SORVU: grain sorghum (Sorghum vulgare), read-out: Visual Growth Reduction (%) 14 Days After Application, SORVU
[9] = TRZSS (wheat, Triticum aestivum), read-out: Visual Growth Reduction (%) 14 Days After Application, TRZSS
[10] = ZEAMX: maize, corn (Zea mays), read-out: Visual Growth Reduction (%) 14 Days After Application, ZEAMX
[11] = ABUTH: velvetleaf (Abutilon theophrasti), read-out: Visual Growth Reduction (%) 14 Days After Application ABUTH
[12] = AMARE: redroot pigweed (Amaranthus retroflexus), read-out: Visual Growth Reduction (%) 14 Days After Application AMARE
[13] = BRSNN: oilseed-rape, canola (Brassica napus), read-out: Visual Growth Reduction (%) 14 Days After Application BRSNN
[14] = CHEAL: lambsquarters (Chenopodium album), read-out: Visual Growth Reduction (%) 14 Days After Application CHEAL
[15] = EPHHL: wild poinsettia (Euphorbia heterophylla), read-out: Visual Growth Reduction (%) 14 Days After Application EPHHL
[16] = HELAN: sunflower (Helianthus annuus), read-out: Visual Growth Reduction (%) 14 Days After Application HELAN
[17] = VIOTR: wild pansy (Viola tricolor), read-out: Visual Growth Reduction (%) 14 Days After Application VIOTR

| SMILES | pest or weed control at 70 g/ha [1, 3] [%] | pest or weed control at 140 g/ha [1, 3] [%] | pest or weed control at 70 g/ha [1, 4] [%] | pest or weed control at 140 g/ha [1, 4] [%] | pest or weed control at 70 g/ha [1, 5] [%] | pest or weed control at 140 g/ha [1, 5] [%] | pest or weed control at 70 g/ha [1, 6] [%] | pest or weed control at 140 g/ha [1, 6] [%] | pest or weed control at 70 g/ha [1, 7] [%] | pest or weed control at 140 g/ha [1, 7] [%] | pest or weed control at 70 g/ha [1, 8] [%] | pest or weed control at 140 g/ha [1, 8] [%] | pest or weed control at 70 g/ha [1, 9] [%] | pest or weed control at 140 g/ha [1, 9] [%] | pest or weed control at 70 g/ha [1, 10] [%] | pest or weed control at 140 g/ha [1, 10] [%] | pest or weed control at 70 g/ha [2, 11] [%] | pest or weed control at 140 g/ha [2, 11] [%] | pest or weed control at 70 g/ha [2, 12] [%] | pest or weed control at 140 g/ha [2, 12] [%] | also measured |
| --- | --- | --- | --- | --- | --- | --- | --- | --- | --- | --- | --- | --- | --- | --- | --- | --- | --- | --- | --- | --- | --- |
| C=Cc1c(N)nc(-c2ccc(C#N)cc2F)nc1C(=O)O [Compound 5, 6-Amino-2-(4-cyano-2-fluorophenyl)-5-vinylpyrimidine-4-carboxylic acid] | 0 to 29 | 0 to 29 | 0 to 29 | 0 to 29 | 0 to 29 | 0 to 29 | 0 to 29 | 0 to 29 | 0 to 29 | 0 to 29 | 0 to 29 | 0 to 29 | 0 to 29 | 0 to 29 | 0 to 29 | 0 to 29 | 0 to 29 | 0 to 29 | 0 to 29 | 0 to 29 | pest or weed control at 70 g/ha [2, 13]: 0 to 29%; pest or weed control at 140 g/ha [2, 13]: 0 to 29%; pest or weed control at 70 g/ha [2, 14]: 0 to 29%; pest or weed control at 140 g/ha [2, 14]: 0 to 29%; pest or weed control at 70 g/ha [2, 15]: 0 to 29%; pest or weed control at 140 g/ha [2, 15]: 0 to 29%; pest or weed control at 70 g/ha [2, 16]: 85 to 94%; pest or weed control at 140 g/ha [2, 16]: 85 to 94%; pest or weed control at 70 g/ha [2, 17]: 0 to 29%; pest or weed control at 140 g/ha [2, 17]: 0 to 29%; melting point: 164 to 168 °C |
| COC(=O)c1nc(-c2cc(F)c(C#N)cc2F)c(F)c(N)c1Cl [Compound 198] | 60 to 74 | 60 to 74 | 0 to 29 | 0 to 29 | 0 to 29 | 0 to 29 | 0 to 29 | 0 to 29 | 0 to 29 | 0 to 29 | 0 to 29 | 0 to 29 | 30 to 44 | 45 to 59 | 0 to 29 | 0 to 29 | 60 to 74 | 75 to 84 | 60 to 74 | 95 to 100 | pest or weed control at 70 g/ha [2, 13]: 75 to 84%; pest or weed control at 140 g/ha [2, 13]: 75 to 84%; pest or weed control at 70 g/ha [2, 14]: 85 to 94%; pest or weed control at 140 g/ha [2, 14]: 95 to 100%; pest or weed control at 70 g/ha [2, 15]: 45 to 59%; pest or weed control at 140 g/ha [2, 15]: 60 to 74%; pest or weed control at 70 g/ha [2, 16]: 95 to 100%; pest or weed control at 140 g/ha [2, 16]: 95 to 100%; pest or weed control at 70 g/ha [2, 17]: 30 to 44%; pest or weed control at 140 g/ha [2, 17]: 60 to 74% |
